Data from patent publication US11649248B2, “Oxadiazaspiro compounds for the treatment of drug abuse and addiction” (ESTEVE PHARMACEUTICALS, S.A., priority 2015, dated 2023).

Target: human σ1 receptor (Homo sapiens (Human), UniProt Q99720)
Test: Human σ1 receptor radioligand assay
Format: binding
Details: transfected HEK-293 membranes, [3H](+)-pentazocine radioligand
Procedure: Human σ1 Receptor Radioligand Assay
The assay was carried out with 7 μg of membrane suspension, 5 nM of [^3H](+)-pentazocine in either absence or presence of either buffer or 10 μM Haloperidol for total and non-specific binding, respectively. Binding buffer contained Tris-HCl 50 mM at pH 8. Plates were incubated at 37° C. for 120 minutes. […] Filters were dried and counted at approximately 40% efficiency in a MicroBeta scintillation counter (Perkin-Elmer) using EcoScint liquid scintillation cocktail

Sequence of human σ1 receptor (Q99720 whole entry): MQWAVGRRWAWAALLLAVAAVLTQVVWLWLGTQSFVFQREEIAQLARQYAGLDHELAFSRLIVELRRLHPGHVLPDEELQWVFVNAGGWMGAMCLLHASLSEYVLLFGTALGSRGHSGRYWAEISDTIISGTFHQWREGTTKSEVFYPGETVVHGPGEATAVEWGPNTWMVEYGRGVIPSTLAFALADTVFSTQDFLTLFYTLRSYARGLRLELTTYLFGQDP

CCN1CC2(CCN(CCC(C)(C)C)CC2)O[C@@H](C)C1=O [Example 52, (S)-9-(3,3-dimethylbutyl)-4-ethyl-2-methyl-1-oxa-4,9-diazaspiro[5.5]undecan-3-one]
Ki: < 500 nM
